The subject of the assay is Ileum. Description: Spasmolytic activity in guinea pig ileum assessed as blockade of muscle contractions at 25 ug. Type of assay: functional, Cavia porcellus.

With `COc1cc2c3c(c1OC)C1(C=CC(=O)C=C1)C[C@H]3N(C)CC2.Cl` [PRONUCIFERINE HYDROCHLORIDE], the Activity is 75%.

The record behind these values is ChEMBL document CHEMBL1151397, “The Alkaloids of Stephania glabra” (1982).
